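In this assay, cells in 96-well plates receive the compound at five concentrations for 48 hours. Endpoints are linearly interpolated between the surrounding concentrations. TGI marks complete inhibition of growth.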
Legend:
Experiment in all cases: DTP human tumour cell line panel, 48 h
A498 renal = test system: A498 renal
A549 NSCLC = test system: A549 NSCLC
ACHN renal = test system: ACHN renal
CCRF-CEM leukemia = test system: CCRF-CEM leukemia
DMS 114 small cell lung = test system: DMS 114 small cell lung
DMS 273 small cell lung = test system: DMS 273 small cell lung
EKVX NSCLC = test system: EKVX NSCLC
HCT-116 colon = test system: HCT-116 colon
HL-60(TB) leukemia = test system: HL-60(TB) leukemia
HOP-62 NSCLC = test system: HOP-62 NSCLC
HOP-92 NSCLC = test system: HOP-92 NSCLC
HT29 colon = test system: HT29 colon
IGROV1 ovarian = test system: IGROV1 ovarian
KM12 colon = test system: KM12 colon
KM20L2 colon = test system: KM20L2 colon
M14 melanoma = test system: M14 melanoma
M19-MEL melanoma = test system: M19-MEL melanoma
MOLT-4 leukemia = test system: MOLT-4 leukemia
NCI-H23 lung = test system: NCI-H23 lung
NCI-H460 lung = test system: NCI-H460 lung
NCI-H522 lung = test system: NCI-H522 lung
OVCAR-5 ovarian = test system: OVCAR-5 ovarian
OVCAR-8 ovarian = test system: OVCAR-8 ovarian
RXF 393 renal = test system: RXF 393 renal
SF-295 CNS = test system: SF-295 CNS
SK-MEL-28 melanoma = test system: SK-MEL-28 melanoma
SK-OV-3 ovarian = test system: SK-OV-3 ovarian
SNB-19 CNS = test system: SNB-19 CNS
SNB-78 CNS = test system: SNB-78 CNS
SR leukemia = test system: SR leukemia
TK-10 renal = test system: TK-10 renal
U251 CNS = test system: U251 CNS
UACC-257 melanoma = test system: UACC-257 melanoma
UACC-62 melanoma = test system: UACC-62 melanoma
UO-31 renal = test system: UO-31 renal
786-0 renal = test system: 786-0 renal
BT-549 breast = test system: BT-549 breast
CAKI-1 renal = test system: CAKI-1 renal
COLO 205 colon = test system: COLO 205 colon
DU-145 prostate = test system: DU-145 prostate
HCC-2998 colon = test system: HCC-2998 colon
HCT-15 colon = test system: HCT-15 colon
HS 578T breast = test system: HS 578T breast
K-562 leukemia = test system: K-562 leukemia
LOX IMVI melanoma = test system: LOX IMVI melanoma
MALME-3M melanoma = test system: MALME-3M melanoma
MCF7 breast = test system: MCF7 breast
MDA-MB-231 breast = test system: MDA-MB-231 breast
MDA-MB-435 = test system: MDA-MB-435
MDA-N = test system: MDA-N
NCI-H226 lung = test system: NCI-H226 lung
NCI/ADR-RES ovarian = test system: NCI/ADR-RES ovarian
OVCAR-3 ovarian = test system: OVCAR-3 ovarian
OVCAR-4 ovarian = test system: OVCAR-4 ovarian
PC-3 prostate = test system: PC-3 prostate
RPMI-8226 leukemia = test system: RPMI-8226 leukemia
SF-268 CNS = test system: SF-268 CNS
SF-539 CNS = test system: SF-539 CNS
SK-MEL-2 melanoma = test system: SK-MEL-2 melanoma
SK-MEL-5 melanoma = test system: SK-MEL-5 melanoma
SN12C renal = test system: SN12C renal
SNB-75 CNS = test system: SNB-75 CNS
SW-620 colon = test system: SW-620 colon
T-47D breast = test system: T-47D breast
DLD-1 colon = test system: DLD-1 colon
HOP-18 NSCLC = test system: HOP-18 NSCLC
LXFL 529 NSCLC = test system: LXFL 529 NSCLC
RXF-631 renal = test system: RXF-631 renal
XF 498 CNS = test system: XF 498 CNS

Measured: TGI

C=C(C)C1CC=C(C)[C@](O)(C2(O)C[C@H](C(=C)C)CC=C2C)C1 (stereo not given in full)
> 100 µM: A498 renal | A549 NSCLC | ACHN renal | CCRF-CEM leukemia | DMS 114 small cell lung | DMS 273 small cell lung | EKVX NSCLC | HCT-116 colon | HL-60(TB) leukemia | HOP-62 NSCLC | HOP-92 NSCLC | HT29 colon | IGROV1 ovarian | KM12 colon | KM20L2 colon | M14 melanoma | M19-MEL melanoma | MOLT-4 leukemia | NCI-H23 lung | NCI-H460 lung | NCI-H522 lung | OVCAR-5 ovarian | OVCAR-8 ovarian | RXF 393 renal | SF-295 CNS | SK-MEL-28 melanoma | SK-OV-3 ovarian | SNB-19 CNS | SNB-78 CNS | SR leukemia | TK-10 renal | U251 CNS | UACC-257 melanoma | UACC-62 melanoma | UO-31 renal

CSc1c(C(=O)Nc2ccc(Cl)cc2)c(N)nn1-c1ccccc1
> 43.2 µM: 786-0 renal
> 87.4 µM: RXF 393 renal
> 86.3 µM: SNB-75 CNS
> 23.8 µM: OVCAR-4 ovarian
not listed: DMS 114 small cell lung | DMS 273 small cell lung | KM20L2 colon | M19-MEL melanoma | SNB-78 CNS | DLD-1 colon | HOP-18 NSCLC | LXFL 529 NSCLC | RXF-631 renal | XF 498 CNS
> 100 µM: all other assays above

CCOC12OC3=C(CC1CC1=C(CCC1=O)O2)C(=O)CC3 (stereo not given)
not listed: ACHN renal | SK-MEL-28 melanoma | BT-549 breast | DU-145 prostate | HCC-2998 colon | HS 578T breast | MCF7 breast | MDA-MB-231 breast | MDA-MB-435 | MDA-N | NCI/ADR-RES ovarian | PC-3 prostate | T-47D breast | XF 498 CNS
> 100 µM: all other assays above

Cc1nc2c(n1CCO)C(=O)c1ccccc1C2=O
23.4 µM: SK-MEL-5 melanoma
30.9 µM: UACC-62 melanoma
6.6 µM: M19-MEL melanoma
34 µM: UACC-257 melanoma
99 µM: OVCAR-4 ovarian
52.3 µM: M14 melanoma
92.9 µM: XF 498 CNS
76.2 µM: OVCAR-3 ovarian
70.2 µM: DMS 273 small cell lung
41.9 µM: COLO 205 colon
53 µM: SK-MEL-2 melanoma
54.2 µM: HL-60(TB) leukemia
30.8 µM: NCI-H23 lung
88.9 µM: SF-539 CNS
74.4 µM: HOP-62 NSCLC
91.8 µM: U251 CNS
43 µM: HCT-116 colon
27.6 µM: NCI-H522 lung
84 µM: IGROV1 ovarian
24.2 µM: MALME-3M melanoma
58.3 µM: K-562 leukemia
not listed: A498 renal | DMS 114 small cell lung | HOP-92 NSCLC | OVCAR-5 ovarian | BT-549 breast | CAKI-1 renal | DU-145 prostate | HS 578T breast | MCF7 breast | MDA-MB-231 breast | MDA-MB-435 | MDA-N | NCI/ADR-RES ovarian | PC-3 prostate | RPMI-8226 leukemia | T-47D breast | HOP-18 NSCLC | RXF-631 renal
> 100 µM: all other assays above
